Here are results for 17 compounds from patent publication US10329309B2, “3-(3H-imidazo[4,5-B]pyridin-2-yl)-1H-pyrazolo[4,3-B]pyridines and therapeutic uses thereof” (Samumed, LLC, priority 2015, dated 2019).

Assay [1] has as its system primary human fibroblasts derived from IPF patients (LL29 cells), α-smooth muscle actin (αSMA). In words: Inhibition of the fibrotic process: TGF-β1-treated primary human fibroblasts from IPF patients, αSMA staining. It is filed as cell-based. Conditions: Fibroblast, 96 h, 4 days; for EC50: LL29 fibroblasts from IPF patients, TGF-β1 20 ng/mL, inhibition of fibrotic process; for inhibition at 10 µM: LL29 fibroblasts, TGF-β1 treated, read-out: percent inhibition at 10 μM (given for EC50 of >10 μM). In short, it runs like this:
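Potency reflects suppression of TGF-β1-driven αSMA expression in IPF patient fibroblasts over 4 days. Values are EC50s from normalized αSMA-positive cell counts, with % inhibition at 10 μM when EC50 exceeded 10 μM.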

In assay [2] the test system is primary human mesenchymal stem cells (hMSCs). Description: Induction of chondrogenesis in primary human mesenchymal stem cells (nodule imaging, Rhodamine B/Nile Red). It is filed as cell-based. Conditions: hMSC chondrogenesis; for Emax: TGF-β3 as positive control, read-out: Max. Activity as % TGF-β3 activity; for EC50: concentration required to induce 50% levels of chondrogenesis vs TGF-β3, read-out: Conc (nM) of 50% TGF-β3 activity. As to the method:
Representative compounds were screened using primary human mesenchymal stem cells (hMSCs) to determine their ability to induce chondrogenesis (process by which cartilage is developed).
Primary human mesenchymal stem cells (hMSCs) were purchased from Lonza (Walkersville, Md.) and expanded in Mesenchymal Stem Cell Growth Media (Lonza). Cells between passage 3 and 6 were used for the experiments.
Each compound was dissolved in DMSO as a 10 mM stock and used to prepare compound source plates. For the 96 well assay, serial dilution (1:3, 6-point dose-response curves from 2700 nM to 10 nM) and compound transfer was performed using the ECHO 550 (Labcyte, Sunnyvale, Calif.) into 96-well clear bottom assay plates (Greiner Bio-One) with appropriate DMSO backfill for a final DMSO concentration of 0.03%. hMSCs were plated at 20,000 cells/well in 250 μL/well Incomplete Chondrogenic Induction Medium (Lonza; DMEM, dexamethasone, ascorbate, insulin-transferrin-selenium [ITS supplement], gentamycin-amphotericin [GA-1000], sodium pyruvate, proline and L-glutamine). TGF-−3 (10 ng/mL) was used as a positive control for differentiation while negative control wells were treated with 75 nL DMSO for normalization and calculating EC50 values. For the 384 well assay, serial dilution (1:3, 8-point dose-response curves from 5000 nM to 2.2 nM) and compound transfer was performed using the ECHO 550 (Labcyte, Sunnyvale, Calif.) into 384-well clear bottom assay plates (Greiner Bio-One) with appropriate DMSO backfill for a final DMSO concentration of 0.03%. hMSCs were plated at 8,000 cells/well in 80 μL/well Incomplete Chondrogenic Induction Medium (Lonza; DMEM, dexamethasone, ascorbate, insulin-transferrin-selenium [ITS supplement], gentamycin-amphotericin [GA-1000], sodium pyruvate, proline and L-glutamine). TGF-β3 (10 ng/mL) was used as a positive control for differentiation while negative control wells were treated with 25 nL DMSO for normalization and calculating EC50 values. Cells were incubated at 37° C. and 5% CO2 for 6 days. To image chondrogenic nodules, the cells were fixed using 4% formaldehyde (Electron Microscopy Sciences), and stained with 2 μg/mL Rhodamine B (Sigma-Aldrich) and 20 μM Nile Red (Sigma-Aldrich) [Johnson K., et. al, A Stem Cell-Based Approach to Cartilage Repair, Science, (2012), 336(6082), 717-721]. The nodules imaged (25 images per well for 96 well plates and 9 images per well for 384 well plates at 10× magnification) by excitation at 531 nm and emission at 625 nm and quantified using the CellInsight CX5 (Thermo Scientific). Area of nodules in each well was normalized to the average of 3 DMSO treated wells on the same plate using Excel (Microsoft Inc.). The normalized averages (fold change over DMSO) of 2 or 3 replicate wells for each compound concentration were calculated. Due to solubility limitations of some of the compounds, curve fitting was incomplete leading to inaccurate EC50 determinations.
Using TGF-β3 as a positive control, the concentration of representative compounds required to induce 50% levels of chondrogenesis is reported. In addition, the maximum activity of each compound and the respective dose that each compound reached maximum chondrogenesis activity is reported.

Regarding `CCC(=O)Nc1cncc(-c2ccc3[nH]nc(-c4nc5c(-c6ccsc6)ccnc5[nH]4)c3n2)c1` [Compound 281, N-(5-(3-(7-(thiophen-3-yl)-3H-imidazo[4,5-b]pyridin-2-yl)-1H-pyrazolo[4,3-b]pyridin-5-yl)pyridin-3-yl)propionamide], in assay [1], the EC50 was > 10000 nM and the inhibition – broadly, the drop in the measured response relative to a control, in per cent – at 10 µM is 21.4%. In addition, in assay [2], the Emax turned out to be 38%.

Consider `Cn1cc(-c2ccc3[nH]nc(-c4nc5c(-c6cccc(F)c6)ccnc5[nH]4)c3n2)cn1` [Compound 508, 3-(7-(3-fluorophenyl)-3H-imidazo[4,5-b]pyridin-2-yl)-5-(1-methyl-1H-pyrazol-4-yl)-1H-pyrazolo[4,3-b]pyridine], for which, in assay [1], the EC50 was > 10000 nM and the inhibition at 10 µM amounted to 8.1%. In addition, the Emax in assay [2] was 43%.

In the case of `CCNCc1cncc(-c2ccc3[nH]nc(-c4nc5c(-c6cc(F)cc(NCCN(C)C)c6)ccnc5[nH]4)c3n2)c1` [Compound 454, N^1-(3-(2-(5-(5-((ethylamino)methyl)pyridin-3-yl)-1H-pyrazolo[4,3-b]pyridin-3-yl)-3H-imidazo[4,5-b]pyridin-7-yl)-5-fluorophenyl)-N^2,N^2-dimethylethane-1,2-diamine], the EC50 in assay [1] worked out at 3510 nM; in assay [2], 21 nM. In assay [2], the Emax was found to be 149%.

As to `CCC(=O)Nc1cncc(-c2ccc3[nH]nc(-c4nc5c(N6CCCCC6)ccnc5[nH]4)c3n2)c1` [Compound 169, N-(5-(3-(7-(piperidin-1-yl)-3H-imidazo[4,5-b]pyridin-2-yl)-1H-pyrazolo[4,3-b]pyridin-5-yl)pyridin-3-yl)propionamide], in assay [1], the EC50 is 5300 nM. Besides, the Emax in assay [2] is 38%.

For the compound `Cc1cn(-c2ccnc3[nH]c(-c4n[nH]c5ccc(-c6cncc(NC(=O)C(C)(C)C)c6)nc45)nc23)cn1` [Compound 204, N-(5-(3-(7-(4-methyl-1H-imidazol-1-yl)-3H-imidazo[4,5-b]pyridin-2-yl)-1H-pyrazolo[4,3-b]pyridin-5-yl)pyridin-3-yl)pivalamide], in assay [1], the EC50 is > 10000 nM and the inhibition at 10 µM worked out at 38.8%. In addition, in assay [2], the Emax was determined as 70% and the EC50 amounted to 10 nM.

Consider `Fc1cccc(-c2ccnc3[nH]c(-c4n[nH]c5ccc(C6CCNCC6)nc45)nc23)c1` [Compound 505, 3-(7-(3-fluorophenyl)-3H-imidazo[4,5-b]pyridin-2-yl)-5-(piperidin-4-yl)-1H-pyrazolo[4,3-b]pyridine], for which, in assay [1], the EC50 is 4930 nM. Besides, in assay [2], the Emax turned out to be 51% and the EC50 came to 10 nM.

`Cc1ccncc1-c1ccc2[nH]nc(-c3nc4c(-c5ccncc5)ccnc4[nH]3)c2n1` [Compound 117, 5-(4-methylpyridin-3-yl)-3-(7-(pyridin-4-yl)-3H-imidazo[4,5-b]pyridin-2-yl)-1H-pyrazolo[4,3-b]pyridine]: in assay [1], the EC50 is > 10000 nM and the inhibition at 10 µM came out at 2.8%. Also, in assay [2], the Emax was found to be 147% and the EC50 was 100 nM.

In turn, `CN(C)Cc1cncc(-c2ccc3[nH]nc(-c4nc5c(N6CCCCC6)ccnc5[nH]4)c3n2)c1` [Compound 181, N,N-dimethyl-1-(5-(3-(7-(piperidin-1-yl)-3H-imidazo[4,5-b]pyridin-2-yl)-1H-pyrazolo[4,3-b]pyridin-5-yl)pyridin-3-yl)methanamine] gave an EC50 in assay [1] of 1360 nM. In addition, the Emax in assay [2] is 44%.

As for `Cc1cn(-c2ccnc3[nH]c(-c4n[nH]c5ccc(-c6cncc(NC(=O)CC(C)C)c6)nc45)nc23)cn1` [Compound 198, 3-methyl-N-(5-(3-(7-(4-methyl-1H-imidazol-1-yl)-3H-imidazo[4,5-b]pyridin-2-yl)-1H-pyrazolo[4,3-b]pyridin-5-yl)pyridin-3-yl)butanamide], in assay [1], the EC50 is > 10000 nM and the inhibition at 10 µM was determined as 0%. For the same compound, in assay [2], the Emax came to 27%.

`Cc1cn(-c2ccnc3[nH]c(-c4n[nH]c5ccc(-c6cncc(CN7CCCC7)c6)nc45)nc23)cn1` [Compound 210, 3-(7-(4-methyl-1H-imidazol-1-yl)-3H-imidazo[4,5-b]pyridin-2-yl)-5-(5-(pyrrolidin-1-ylmethyl)pyridin-3-yl)-1H-pyrazolo[4,3-b]pyridine] registered an EC50 in assay [1] of 6740 nM. Besides, the Emax in assay [2] was 49%.

The compound `Fc1cccc(-c2ccnc3[nH]c(-c4n[nH]c5ccc(-c6cncc(CN7CCC(F)(F)C7)c6)nc45)nc23)c1` [Compound 26, 5-(5-((3,3-Difluoropyrrolidin-1-yl)methyl)pyridin-3-yl)-3-(7-(3-fluorophenyl)-3H-imidazo[4,5-b]pyridin-2-yl)-1H-pyrazolo[4,3-b]pyridine] returned an EC50 in assay [1] of 344 nM. In addition, in assay [2], the Emax was determined as 247% and the EC50 came to 900 nM.

With `CCCCC(=O)Nc1cncc(-c2ccc3[nH]nc(-c4nc5c(-c6cc(F)cc(NCCN(C)C)c6)ccnc5[nH]4)c3n2)c1` [Compound 467, N-(5-(3-(7-(3-((2-(dimethylamino)ethyl)amino)-5-fluorophenyl)-3H-imidazo[4,5-b]pyridin-2-yl)-1H-pyrazolo[4,3-b]pyridin-5-yl)pyridin-3-yl)pentanamide], the values for the EC50 in assay [1] and in assay [2] were 2260 nM and 10 nM, respectively. Further, the Emax in assay [2] is 71%.

For `CC(C)C(=O)Nc1cncc(-c2ccc3[nH]nc(-c4nc5c(-c6cccnc6)ccnc5[nH]4)c3n2)c1` [Compound 93, N-(5-(3-(7-(pyridin-3-yl)-3H-imidazo[4,5-b]pyridin-2-yl)-1H-pyrazolo[4,3-b]pyridin-5-yl)pyridin-3-yl)isobutyramide], in assay [1], the EC50 was > 10000 nM and the inhibition at 10 µM was 0%. The Emax in assay [2] was 26%.

Consider `CC(C)(C)C(=O)Nc1cncc(-c2ccc3[nH]nc(-c4nc5c(-c6ccc(F)cc6)ccnc5[nH]4)c3n2)c1` [Compound 36, N-(5-(3-(7-(4-fluorophenyl)-3H-imidazo[4,5-b]pyridin-2-yl)-1H-pyrazolo [4,3-b]pyridin-5-yl)pyridin-3-yl)pivalamide], for which the EC50 in assay [1] came to 2560 nM; in assay [2] it was 10 nM. For the same compound, in assay [2], the Emax came out at 63%.

In the case of `CCCC(=O)Nc1cncc(-c2ccc3[nH]nc(-c4nc5c(-c6cc(F)cc(CNS(C)(=O)=O)c6)ccnc5[nH]4)c3n2)c1` [Compound 493, N-(5-(3-(7-(3-fluoro-5-(methylsulfonamidomethyl)phenyl)-3H-imidazo[4,5-b]pyridin-2-yl)-1H-pyrazolo[4,3-b]pyridin-5-yl)pyridin-3-yl)butyramide], in assay [1], the EC50 is > 10000 nM and the inhibition at 10 µM came to 0%. Also, the Emax in assay [2] was 43%.

`O=C(Nc1cncc(-c2ccc3[nH]nc(-c4nc5c(-c6ccncc6)ccnc5[nH]4)c3n2)c1)C1CCCCC1` [Compound 135, N-(5-(3-(7-(pyridin-4-yl)-3H-imidazo[4,5-b]pyridin-2-yl)-1H-pyrazolo[4,3-b]pyridin-5-yl)pyridin-3-yl)cyclohexanecarboxamide]: in assay [1], the EC50 is > 10000 nM and the inhibition at 10 µM amounted to 0%. Besides, in assay [2], the Emax worked out at 69% and the EC50 was determined as 10 nM.

As for `CN1CCN(c2ccnc3[nH]c(-c4n[nH]c5ccc(-c6cncc(N)c6)nc45)nc23)CC1` [Compound 227, 5-(3-(7-(4-methylpiperazin-1-yl)-3H-imidazo[4,5-b]pyridin-2-yl)-1H-pyrazolo[4,3-b]pyridin-5-yl)pyridin-3-amine], in assay [1], the EC50 is > 10000 nM and the inhibition at 10 µM is 32.8%. The Emax in assay [2] is 47%.
